Tested on: Balb/c mice
Test: Polypeptide chip-based vaccine immunogenicity scoring system
Assay type: in vivo
Design: key to A2: whether the 95 percentile of the last sampling is increased compared with the end point: Y = rise; N = no rise
Settings: for A: 95 percentile grouping number score / B: Mouse performance score: total score = 5; for C1: #A timing-sequence response peptide fragment set / C2: #B vaccine specificity peptide fragment set / C3: Intersection of A and B / C4: Percentage of the intersection in set B / C: Timing-sequence response and specificity score: value of the whole mix
Protocol: Data distribution and characteristics thereof are analyzed based on a) and b), a polypeptide chip-based vaccine immunogenicity scoring system (referring to Table 7) is designed.
10 combinations are evaluated by the polypeptide chip-based vaccine immunogenicity scoring system. An evaluation method is consistent with that in Embodiment II. Evaluation results are show in the table below.
This embodiment is consistent with Embodiment II. Each combination is evaluated by the polypeptide chip-based vaccine immunogenicity scoring system. Evaluation results are show in the table below.

[1] = Embodiment III, polypeptide-KLH
[2] = Embodiment III, polypeptide-KLH, Mix1-10
[3] = Embodiment III, polypeptide-KLH, A*3 + B*2 + C*1
[4] = adjuvant AddaVax, 7 peptides co-immunized in mice
[5] = adjuvant Adju-Phos, 7 peptides co-immunized in mice
[6] = adjuvant Alhydrogel, 7 peptides co-immunized in mice
[7] = adjuvant Imjet Alumn, 7 peptides co-immunized in mice
[8] = adjuvant MA103A, 7 peptides co-immunized in mice
[9] = adjuvant MA103B, 7 peptides co-immunized in mice

DSFKEELDKY (SARS-CoV-2) [SEQ ID NO:33]
B1: D 0-D 14 95 percentile rise in the number of mice [1]: 3
B2: D 0-D 21 95 percentile rise in the number of mice [1]: 3
B3: D 14-D 21 95 percentile rise in the number of mice [1]: 1
B4: D 21-D 28 95 percentile rise in the number of mice [1]: 1
A1: difference between a highest median and a D 0 median (95 percentile) [2]: 0.13
A2: whether the 95 percentile of the last sampling is increased compared with the end point [2]: N
Total single peptide [3]: 18.3
A: 95 percentile grouping number score [1]: 4.5
B: Mouse performance score [1]: 1.9
C1: #A timing-sequence response peptide fragment set [1]: 288
C2: #B vaccine specificity peptide fragment set [1]: 268
C3: Intersection of A and B [1]: 4
C4: Percentage of the intersection in set B [1]: 1.493
C: Timing-sequence response and specificity score [1]: 1

QELGKYEQY (SARS-CoV-2) [SEQ ID NO:38]
B1: D 0-D 14 95 percentile rise in the number of mice [1]: 3
B2: D 0-D 21 95 percentile rise in the number of mice [1]: 3
B3: D 14-D 21 95 percentile rise in the number of mice [1]: 2
B4: D 21-D 28 95 percentile rise in the number of mice [1]: 1
A1: difference between a highest median and a D 0 median (95 percentile) [2]: 0.10
A2: whether the 95 percentile of the last sampling is increased compared with the end point [2]: Y
Total single peptide [3]: 18.2
A: 95 percentile grouping number score [1]: 4.5
B: Mouse performance score [1]: 2.1
C1: #A timing-sequence response peptide fragment set [1]: 352
C2: #B vaccine specificity peptide fragment set [1]: 541
C3: Intersection of A and B [1]: 1
C4: Percentage of the intersection in set B [1]: 0.185
C: Timing-sequence response and specificity score [1]: 0.5

SVYAWNRKR (SARS-CoV-2) [SEQ ID NO:3]
A2: whether the 95 percentile of the last sampling is increased compared with the end point (Embodiment II, Combination 1): N
B1: D 0-D 14 95 percentile rise in the number of mice (Embodiment II, Combination 1): 5
B2: D 0-D 21 95 percentile rise in the number of mice (Embodiment II, Combination 1): 5
B3: D 14-D 21 95 percentile rise in the number of mice (Embodiment II, Combination 1): 1
B4: D 21-D 28 95 percentile rise in the number of mice (Embodiment II, Combination 1): 2
Total single peptide (Embodiment II, Combination 1, A*3 + B*2 + C*1): 10.7
A: 95 percentile grouping number score (Embodiment II, Combination 1): 1
B: Mouse performance score (Embodiment II, Combination 1): 3.6
A1: difference between a highest median and a D 0 median (95 percentile) (Embodiment II, mice immunized with Combination 1): 0.05
B1: D 0-D 14 95 percentile rise in the number of mice [1]: 3
B2: D 0-D 21 95 percentile rise in the number of mice [1]: 3
B3: D 14-D 21 95 percentile rise in the number of mice [1]: 2
B4: D 21-D 28 95 percentile rise in the number of mice [1]: 1
A1: difference between a highest median and a D 0 median (95 percentile) [2]: 0.13
A2: whether the 95 percentile of the last sampling is increased compared with the end point [2]: N
Total single peptide [3]: 18.7
A: 95 percentile grouping number score [1]: 4.5
B: Mouse performance score [1]: 2.1
C1: #A timing-sequence response peptide fragment set [1]: 823
C2: #B vaccine specificity peptide fragment set [1]: 398
C3: Intersection of A and B [1]: 7
C4: Percentage of the intersection in set B [1]: 1.759
C: Timing-sequence response and specificity score [1]: 1
1) 95 percentile grouping number A [4]: 4
1) 95 percentile grouping number A1 [4]: 0.05
2) Mouse performance B [4]: 3.5
2) Mouse performance B1 [4]: 3
2) Mouse performance B2 [4]: 5
2) Mouse performance B3 [4]: 4
3) Timing-sequence response and specificity C [4]: 0
3) Timing-sequence response and specificity C1 [4]: 237
3) Timing-sequence response and specificity C2 [4]: 1244
3) Timing-sequence response and specificity C3 [4]: 0
3) Timing-sequence response and specificity C4 [4]: 0.000
Total single peptide [4]: 19
1) 95 percentile grouping number A [5]: 3.5
1) 95 percentile grouping number A1 [5]: 0.05
2) Mouse performance B [5]: 3
2) Mouse performance B1 [5]: 4
2) Mouse performance B2 [5]: 5
2) Mouse performance B3 [5]: 2
3) Timing-sequence response and specificity C [5]: 0
3) Timing-sequence response and specificity C1 [5]: 203
3) Timing-sequence response and specificity C2 [5]: 1244
3) Timing-sequence response and specificity C3 [5]: 0
3) Timing-sequence response and specificity C4 [5]: 0.000
Total single peptide [5]: 16.5
1) 95 percentile grouping number A [6]: 1
1) 95 percentile grouping number A1 [6]: 0.012
2) Mouse performance B [6]: 0.8
2) Mouse performance B1 [6]: 2
2) Mouse performance B2 [6]: 1
2) Mouse performance B3 [6]: 0
3) Timing-sequence response and specificity C [6]: 1
3) Timing-sequence response and specificity C1 [6]: 123
3) Timing-sequence response and specificity C2 [6]: 1244
3) Timing-sequence response and specificity C3 [6]: 2
3) Timing-sequence response and specificity C4 [6]: 0.161
Total single peptide [6]: 5.1
1) 95 percentile grouping number A [7]: 5
1) 95 percentile grouping number A1 [7]: 0.09
2) Mouse performance B [7]: 2.7
2) Mouse performance B1 [7]: 5
2) Mouse performance B2 [7]: 4
2) Mouse performance B3 [7]: 1
3) Timing-sequence response and specificity C [7]: 1
3) Timing-sequence response and specificity C1 [7]: 100
3) Timing-sequence response and specificity C2 [7]: 1244
3) Timing-sequence response and specificity C3 [7]: 3
3) Timing-sequence response and specificity C4 [7]: 0.241
Total single peptide [7]: 20.9
1) 95 percentile grouping number A [8]: 5
1) 95 percentile grouping number A1 [8]: 0.08
2) Mouse performance B [8]: 2.9
2) Mouse performance B1 [8]: 5
2) Mouse performance B2 [8]: 5
2) Mouse performance B3 [8]: 1
3) Timing-sequence response and specificity C [8]: 1
3) Timing-sequence response and specificity C1 [8]: 260
3) Timing-sequence response and specificity C2 [8]: 1244
3) Timing-sequence response and specificity C3 [8]: 3
3) Timing-sequence response and specificity C4 [8]: 0.241
Total single peptide [8]: 21.3
1) 95 percentile grouping number A [9]: 3.5
1) 95 percentile grouping number A1 [9]: 0.05
2) Mouse performance B [9]: 2.9
2) Mouse performance B1 [9]: 5
2) Mouse performance B2 [9]: 5
2) Mouse performance B3 [9]: 1
3) Timing-sequence response and specificity C [9]: 0
3) Timing-sequence response and specificity C1 [9]: 153
3) Timing-sequence response and specificity C2 [9]: 1244
3) Timing-sequence response and specificity C3 [9]: 0
3) Timing-sequence response and specificity C4 [9]: 0.000
Total single peptide [9]: 16.3

KEIDRLNEV [SEQ ID NO:12]
B1: D 0-D 14 95 percentile rise in the number of mice [1]: 3
B2: D 0-D 21 95 percentile rise in the number of mice [1]: 3
B3: D 14-D 21 95 percentile rise in the number of mice [1]: 1
B4: D 21-D 28 95 percentile rise in the number of mice [1]: 0
A1: difference between a highest median and a D 0 median (95 percentile) [2]: 0.10
A2: whether the 95 percentile of the last sampling is increased compared with the end point [2]: N
Total single peptide [3]: 15.9
A: 95 percentile grouping number score [1]: 4
B: Mouse performance score [1]: 1.7
C1: #A timing-sequence response peptide fragment set [1]: 257
C2: #B vaccine specificity peptide fragment set [1]: 682
C3: Intersection of A and B [1]: 3
C4: Percentage of the intersection in set B [1]: 0.440
C: Timing-sequence response and specificity score [1]: 0.5

NLDSKVGGNYNY [SEQ ID NO:15]
B1: D 0-D 14 95 percentile rise in the number of mice [1]: 3
B2: D 0-D 21 95 percentile rise in the number of mice [1]: 3
B3: D 14-D 21 95 percentile rise in the number of mice [1]: 1
B4: D 21-D 28 95 percentile rise in the number of mice [1]: 0
A1: difference between a highest median and a D 0 median (95 percentile) [2]: 0.15
A2: whether the 95 percentile of the last sampling is increased compared with the end point [2]: N
Total single peptide [3]: 17.4
A: 95 percentile grouping number score [1]: 4.5
B: Mouse performance score [1]: 1.7
C1: #A timing-sequence response peptide fragment set [1]: 257
C2: #B vaccine specificity peptide fragment set [1]: 682
C3: Intersection of A and B [1]: 3
C4: Percentage of the intersection in set B [1]: 0.440
C: Timing-sequence response and specificity score [1]: 0.5

— patent US20230136600A1, “Method and device for screening antigen epitope polypeptide” (priority 2020, published 2023)
